Measurements published in US10688084B2 (priority 2016, dated 2020).
Like-named read-outs stand apart in the source and are kept apart here.

Columns and labels:
[1] = tested on: cyclooxygenase (COX); experiment: COX activity assay (fluorometric kit, peroxidase activity) with skin fibroblast (HSF) cell lysate; format: biochemical; conditions: tested in presence of SC560 or celecoxib
[2] = tested on: Wistar rats; format: in vivo
Protocol: In the study of antipyretic properties of the formula I compound, were taken female and male Wistar rats aged 6-7 weeks, with a body mass of 180-220 g. The number of animals in each group was 10.
The febrile reaction was caused by subcutaneous administration of a 20% suspension of baking yeast. The rectal temperature was measured with an electrothermometer prior to the introduction of yeast and 18 hours after it (the difference of these measurements is the estimated hyperthermic reaction). The preparation was administered to animals at the peak of hyperthermia once (after 18 hours). The antipyretic effect was evaluated by hyperthermia decrease 2 hours after the injection of the test substance, and then the effect dynamics was recorded at hourly intervals for 7 hours.
The introduction to rats was carried out in the amount of no more than 1 ml/100 g. The concentration of the resulting solution was 7.5 mg/ml.
The difference in temperature after preparation administration and after 18 hours of induction with yeast was taken as the parameter of hyperthermia decrease.
Animals were observed individually after administration throughout the study. […] Wilcoxon nonparametric criterion was used for statistical comparison of experimental groups. Differences were determined at the 0.05 level of significance. The statistical analysis was carried out using the R-studio program.

COc1ccc2cc([C@H](C)C(=O)OCc3cnc(C)c(OC(=O)[C@@H](C)c4ccc5cc(OC)ccc5c4)c3COC(=O)[C@@H](C)c3ccc4cc(OC)ccc4c3)ccc2c1 [Compound of formula I, 3-((S)-2-(6-methoxynaphth-2-yl)propanoiloxy)-4,5-bis (((S)-2-(6-methoxinaphtht-2-yl)propanoiloxy)methyl)-2-methylpyridinium (S)-2-(6-methoxynaphth-2-yl) propanoate]
COX isoform preference [1]: preferential inhibitory activity against the isoform of COX-2 | Antipyretic action ([2]; 20 mg/kg, both males and females): no antipyretic action was observed | Δ t after 2 hours, (M ± SD) ([2]; 20 mg/kg, females): −0.07 | Δ t after 3 hours, (M ± SD) ([2]; 20 mg/kg, females): −0.27 | Δ t after 4 hours, (M ± SD) ([2]; 20 mg/kg, females): −0.35 | Δ t after 5 hours, (M ± SD) ([2]; 20 mg/kg, females): 0.34 | Δ t after 6 hours, (M ± SD) ([2]; 20 mg/kg, females): −0.01 | Δ t after 7 hours, (M ± SD) ([2]; 20 mg/kg, females): −0.08 | Δ t after 2 hours, (M ± SD) ([2]; 20 mg/kg, males): 0.13 | Δ t after 3 hours, (M ± SD) ([2]; 20 mg/kg, males): 0.24 | Δ t after 4 hours, (M ± SD) ([2]; 20 mg/kg, males): 0.02 | Δ t after 5 hours, (M ± SD) ([2]; 20 mg/kg, males): 0.1 | Δ t after 6 hours, (M ± SD) ([2]; 20 mg/kg, males): −0.21 | Δ t after 7 hours, (M ± SD) ([2]; 20 mg/kg, males): 0.04 | Level of temperature decrease ([2]; 50 mg/kg, 3-4 hours after administration): 0.34-0.97 °C | Δ t after 2 hours, (M ± SD) ([2]; 50 mg/kg, females): 0.87 | Δ t after 3 hours, (M ± SD) ([2]; 50 mg/kg, females): 0.91 | Δ t after 4 hours, (M ± SD) ([2]; 50 mg/kg, females): 0.66 | Δ t after 5 hours, (M ± SD) ([2]; 50 mg/kg, females): 0.53 | Δ t after 6 hours, (M ± SD) ([2]; 50 mg/kg, females): 0.61 | Δ t after 7 hours, (M ± SD) ([2]; 50 mg/kg, females): 0.5 | Temperature lower than before the introduction by ([2]; 50 mg/kg, females, 2 and 3 hours after introduction): 0.9 °C | Temperature decrease ([2]; 50 mg/kg, females, 4, 5, 6 and 7 hours after introduction): 0.5-0.7 °C | Δ t after 2 hours, (M ± SD) ([2]; 50 mg/kg, males): 0.22 | Δ t after 3 hours, (M ± SD) ([2]; 50 mg/kg, males): 0.36 | Δ t after 4 hours, (M ± SD) ([2]; 50 mg/kg, males): 0.39 | Δ t after 5 hours, (M ± SD) ([2]; 50 mg/kg, males): 0.25 | Δ t after 6 hours, (M ± SD) ([2]; 50 mg/kg, males): 0.11 | Δ t after 7 hours, (M ± SD) ([2]; 50 mg/kg, males): 0.09 | Δ t after 2 hours, (M ± SD) ([2]; 75 mg/kg, females): 0.9 | Δ t after 3 hours, (M ± SD) ([2]; 75 mg/kg, females): 0.96 | Δ t after 4 hours, (M ± SD) ([2]; 75 mg/kg, females): 1.39 | Δ t after 5 hours, (M ± SD) ([2]; 75 mg/kg, females): 1.52 | Δ t after 6 hours, (M ± SD) ([2]; 75 mg/kg, females): 1.51 | Δ t after 7 hours, (M ± SD) ([2]; 75 mg/kg, females): 1.17 | Δ t after 2 hours, (M ± SD) ([2]; 75 mg/kg, males): 0.76 | Δ t after 3 hours, (M ± SD) ([2]; 75 mg/kg, males): 1.15 | Δ t after 4 hours, (M ± SD) ([2]; 75 mg/kg, males): 1.38 | Δ t after 5 hours, (M ± SD) ([2]; 75 mg/kg, males): 1.31 | Δ t after 6 hours, (M ± SD) ([2]; 75 mg/kg, males): 0.96 | Δ t after 7 hours, (M ± SD) ([2]; 75 mg/kg, males): 0.92 | Temperature less than before the introduction for ([2]; 75 mg/kg, throughout the experiment): 0.76-1.5 °C
